Measurements: EP4603105A1, “PHARMACEUTICAL COMPOSITION CONTAINING CYCLIC COMPOUND HAVING SELECTIVE KRAS INHIBITORY EFFECT AGAINST HRAS AND NRAS” (CHUGAI SEIYAKU KABUSHIKI KAISHA, priority 2022, dated 2024)
*1 amine or outer side, *2 acyl side, *3 side chain or, on linkers, in order; H or OH if unused. Where a SMILES comes first, the peptide text is derived from it. Bridges are numbered along the chain shown (N, C = ends). [ ]: non-standard residue; d: D form. The star is where a group is joined. hPhe(3,5-F2-4-CF3) = N[C@@H](CCc1cc(F)c(C(F)(F)F)c(F)c1)C(=O)O; hPhe(3-Cl-4-CF3) = N[C@@H](CCc1ccc(C(F)(F)F)c(Cl)c1)C(=O)O; NPrPhe(4-CF3) = CCCN[C@@H](Cc1ccc(C(F)(F)F)cc1)C(=O)O; NEtPhe(4-CF3) = CCN[C@@H](Cc1ccc(C(F)(F)F)cc1)C(=O)O; X40 = Cc1ccc(C[C@@H](C(=O)[*:2])N(CC(C)C)[*:1])cc1; X46 = C=CCCN([C@@H](Cc1ccc(C)cc1)C(=O)[*:2])[*:1]; X16 = O=C([C@@H](N[*:1])C1CC(F)(F)C1)[*:2]; NMeGly(cPent) = CN[C@H](C(=O)O)C1CCCC1; NMeD = CN[C@@H](CC(=O)O)C(=O)O; NMeL = CN[C@@H](CC(C)C)C(=O)O; Ac6c = NC1(C(=O)O)CCCCC1; Morpholide = C1CN(*)CCO1; NMeA = CN[C@@H](C)C(=O)O; Ac5c = NC1(C(=O)O)CCCC1; Aze = O=C(O)[C@@H]1CCN1; Sar = CNCC(=O)O

Tests used:
[1] = biological target: GDP-bound NRAS wild-type protein (Homo sapiens, UniProt P01111); assay: Binding to NRAS by surface plasmon resonance (SPR), KD and KD ratio to KRAS
Method in brief: (§1)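 Compound binding is evaluated by SPR single-cycle kinetics, with concentrations added intermittently from low to high for 75 s each. Target surfaces carry GDP-loaded biotinylated Avi-RAS at about 100–300 RU, regenerated after each cycle; temperature 30°C. A 1:1 binding model gives KD.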

[2] = biological target: HRAS wild-type protein (Homo sapiens, UniProt P01112); assay: Binding to HRAS by surface plasmon resonance (SPR), KD and KD ratio to KRAS
Method in brief: as §1

[3] = system: human lung cancer strain NCI-H441; type: cell-based
Method in brief: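 Proliferation was scored by […] measured after the reagent was added to cultures kept at 37°C in 5% carbon dioxide.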

[4] = ratio of KD value for GDP-bound NRAS wild-type protein to KD value for KRAS (SPR)
[5] = ratio of KD value for HRAS wild-type protein to KD value for KRAS (SPR)
[6] = ratio of the KD value with respect to GDP-bound NRAS wild-type protein to the KD value with respect to KRAS
[7] = ratio of the KD value with respect to HRAS wild-type protein to the KD value with respect to KRAS
[8] = ratio of KD for GDP-bound NRAS wild-type protein to KD for KRAS
[9] = ratio of KD for HRAS wild-type protein to KD for KRAS

Chain of GDP-bound NRAS wild-type protein (P01111 whole entry): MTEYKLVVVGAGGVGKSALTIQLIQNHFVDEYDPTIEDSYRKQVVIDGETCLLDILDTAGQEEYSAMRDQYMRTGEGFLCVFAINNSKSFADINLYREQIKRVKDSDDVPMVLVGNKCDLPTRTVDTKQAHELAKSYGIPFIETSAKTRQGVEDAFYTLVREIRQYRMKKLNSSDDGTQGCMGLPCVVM
Chain of HRAS wild-type protein (P01112 whole entry): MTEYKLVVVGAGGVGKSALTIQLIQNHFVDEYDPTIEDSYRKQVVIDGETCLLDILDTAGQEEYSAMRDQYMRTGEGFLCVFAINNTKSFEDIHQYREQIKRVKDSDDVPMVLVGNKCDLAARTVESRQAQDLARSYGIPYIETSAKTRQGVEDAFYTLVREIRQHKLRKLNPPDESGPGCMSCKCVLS

IC50 [3] [nM]	SMILES	NRAS /KRAS [1, 4]	HRAS /KRAS [2, 5]	NRAS /KRAS [1, 6]	HRAS /KRAS [2, 7]	NRAS /KRAS [1, 8]	HRAS /KRAS [2, 9]
15.6	CC[C@H](C)[C@@H]1NC(=O)[C@H](CC(F)F)N(C)C(=O)C[C@@H](C(=O)N(C)CC)N(C)C(=O)[C@H](C2CCCC2)N(C)C(=O)C2(CC(C)(C)C2)NC(=O)[C@@H]2C[C@@H](C)CN2C(=O)[C@H](CCc2ccc(C(F)(F)F)c(Cl)c2)NC(=O)CN(C)C(=O)[C@H](Cc2ccc(C)cc2)N2CC/C=C\C[C@@H](C2=O)N(C)C(=O)CN(C)C1=O [PP1837]	A (a compound having 10 or more and less than 20 is denoted as A)	A (a compound having 10 or more and less than 20 is denoted as A)	–	–	–	–
18.5	CCO[C@@H]1C[C@H]2C(=O)NC3(CC(C)(C)C3)C(=O)N(C)[C@@H](C3CCCC3)C(=O)N(C)[C@H](C(=O)N(C)C)CC(=O)N3CCCCC[C@H]3C(=O)N[C@@H]([C@@H](C)CC)C(=O)N(C)CC(=O)N(C)[C@H]3C/C=C\CCN(C3=O)[C@@H](Cc3ccc(C(F)(F)F)cc3)C(=O)N(C)CC(=O)N[C@@H](CCc3cc(F)c(C(F)(F)F)c(F)c3)C(=O)N2C1 [PP1915]	–	–	A (a compound having 10 or more and less than 20 is denoted as A)	A (a compound having 10 or more and less than 20 is denoted as A)	–	–
43.3	CCCN1C(=O)CN(C)C(=O)CN(C)C(=O)[C@H](C2CC(F)(F)C2)NC(=O)[C@H](CC(C)C)N(C)C(=O)C[C@@H](C(=O)N2CCOCC2)N(C)C(=O)[C@H](C2CCCC2)N(C)C(=O)C2(CCCC2)NC(=O)[C@@H]2CCCN2C(=O)[C@H](CCc2cc(F)c(C(F)(F)F)c(F)c2)NC(=O)CN(C)C(=O)[C@@H]1Cc1ccc(C(F)(F)F)cc1 [PP0769] ([NMeL][X16][Sar][Sar][NPrPhe(4-CF3)][Sar][hPhe(3,5-F2-4-CF3)]P[Ac5c][NMeGly(cPent)][NMeD]-Morpholide; lactam N-11)	–	–	–	–	B (a compound having 3 or more and less than 10 is denoted as B)	C (A compound having a KD ratio of 0.1 or more and less than 3 is denoted as C)
17.1	CC[C@H](C)[C@@H]1NC(=O)[C@H](CC(C)C)N(C)C(=O)C[C@@H](C(=O)N2CCOCC2)N(C)C(=O)[C@H](C2CCCC2)N(C)C(=O)C2(CCCCC2)NC(=O)[C@@H]2CCCN2C(=O)[C@H](CCc2ccc(C(F)(F)F)c(Cl)c2)NC(=O)CN(C)C(=O)[C@H](Cc2ccc(C(F)(F)F)cc2)N(CC)C(=O)[C@@H]2CCN2C(=O)[C@H](C)N(C)C1=O [PP0222] ([NMeL]I[NMeA][Aze][NEtPhe(4-CF3)][Sar][hPhe(3-Cl-4-CF3)]P[Ac6c][NMeGly(cPent)][NMeD]-Morpholide; lactam N-11)	–	–	–	–	C (A compound having a KD ratio of 0.1 or more and less than 3 is denoted as C)	C (A compound having a KD ratio of 0.1 or more and less than 3 is denoted as C)
46.3	CCC[C@H]1C(=O)N[C@@H](C2CCCCC2)C(=O)N(C)CC(=O)N(C)[C@H]2C/C=C\CCN(C2=O)[C@@H](Cc2ccc(C(F)(F)F)cc2)C(=O)N(C)CC(=O)N[C@@H](CCc2ccc(C(F)(F)F)c(Cl)c2)C(=O)N2C[C@H](OCC)C[C@H]2C(=O)NC2(CC(C)(C)C2)C(=O)N(C)[C@@H](CC(C)C)C(=O)N(C)[C@H](C(=O)N(C)C)CC(=O)N1C [PP3017]	–	–	–	–	AA (a compound having 20 or more is denoted as AA)	A (a compound having 10 or more and less than 20 is denoted as A)
137	CCC[C@H]1C(=O)N[C@@H]([C@@H](C)CC)C(=O)N(C2CC2)CC(=O)N(C)[C@H]2C/C=C\CCN(C2=O)[C@@H](Cc2ccc(C(F)(F)F)cc2)C(=O)N(C)CC(=O)N[C@@H](CCc2ccc(C(F)(F)F)c(OC)c2)C(=O)N2C[C@H](OCC)C[C@H]2C(=O)NC2(CC(C)(C)C2)C(=O)N(C)[C@@H](CC2CCC2)C(=O)N(C)[C@H](C(=O)N(C)C)CC(=O)N1C [PP2770]	–	–	–	–	A (a compound having 10 or more and less than 20 is denoted as A)	A (a compound having 10 or more and less than 20 is denoted as A)
16.5	CCO[C@@H]1C[C@H]2C(=O)NC3(CCC3)C(=O)N(C)[C@@H](C3CCCC3)C(=O)N(C)[C@H](C(=O)N(C)C)CC(=O)N(C)[C@@H](CC(C)(C)C)C(=O)N[C@@H]([C@@H](C)CC)C(=O)N(C)CC(=O)N(C)[C@H]3C/C=C\CCN(C3=O)[C@@H](Cc3ccc(C(F)(F)F)cc3)C(=O)N(C)CC(=O)N[C@@H](CCc3cc(F)c(C(F)(F)F)c(F)c3)C(=O)N2C1 [PP1117]	–	–	–	–	A (a compound having 10 or more and less than 20 is denoted as A)	A (a compound having 10 or more and less than 20 is denoted as A)
3.1	CCO[C@@H]1C[C@H]2C(=O)NC3(CC(C)(C)C3)C(=O)N(C)[C@@H](C3CCCC3)C(=O)N(C)[C@H](C(=O)N(C)CC)CC(=O)N(C)[C@@H](COC)C(=O)N[C@@H]([C@@H](C)CC)C(=O)N(C)CC(=O)N(C)[C@H]3C/C=C\CCN(C3=O)[C@@H](Cc3ccc(C(F)(F)F)cc3)C(=O)N(C)CC(=O)N[C@@H](CCc3ccc(C(F)(F)F)c(OC)c3)C(=O)N2C1 [PP1679]	A (a compound having 10 or more and less than 20 is denoted as A)	A (a compound having 10 or more and less than 20 is denoted as A)	–	–	–	–
5.5	C=CCCN1C(=O)[C@@H]2CCN2C(=O)[C@H](C)N(C)C(=O)[C@H]([C@@H](C)CC)NC(=O)[C@H](CC(C)C)N(C)C(=O)C[C@@H](C(=O)N2CCOCC2)N(C)C(=O)[C@H](C2CCCC2)N(C)C(=O)C2(CCCC2)NC(=O)[C@@H]2CCCN2C(=O)[C@H](CCc2ccc(C(F)(F)F)c(Cl)c2)NC(=O)CN(C)C(=O)[C@@H]1Cc1ccc(C)cc1 [PP0089] ([NMeL]I[NMeA][Aze][X46][Sar][hPhe(3-Cl-4-CF3)]P[Ac5c][NMeGly(cPent)][NMeD]-Morpholide; lactam N-11)	–	–	–	–	C (A compound having a KD ratio of 0.1 or more and less than 3 is denoted as C)	B (a compound having 3 or more and less than 10 is denoted as B)
39.3	CC[C@H](C)[C@@H]1NC(=O)[C@H](CC(C)C)N(C)C(=O)C[C@@H](C(=O)N2CCOCC2)N(C)C(=O)[C@H](C2CCCC2)N(C)C(=O)C2(CCCC2)NC(=O)[C@@H]2CCCN2C(=O)[C@H](CCc2ccc(C(F)(F)F)c(Cl)c2)NC(=O)CN(C)C(=O)[C@H](Cc2ccc(C)cc2)N(CC(C)C)C(=O)CN(C)C(=O)CN(C)C1=O [PP0063] ([NMeL]I[Sar][Sar][X40][Sar][hPhe(3-Cl-4-CF3)]P[Ac5c][NMeGly(cPent)][NMeD]-Morpholide; lactam N-11)	–	–	–	–	C (A compound having a KD ratio of 0.1 or more and less than 3 is denoted as C)	C (A compound having a KD ratio of 0.1 or more and less than 3 is denoted as C)
38.6	CCO[C@@H]1C[C@H]2C(=O)NC3(CC(F)(F)C3)C(=O)N(C)[C@@H](C3CCCC3)C(=O)N(C)[C@H](C(=O)N3CCOCC3)CC(=O)N(C)[C@@H](COC)C(=O)N[C@@H]([C@@H](C)CC)C(=O)N(C)CC(=O)N(C)[C@H]3CCCCCN(C3=O)[C@@H](Cc3ccc(C(F)(F)F)cc3)C(=O)N(C)CC(=O)N[C@@H](CCc3cc(F)c(C(F)(F)F)c(F)c3)C(=O)N2C1 [PP0843]	–	–	–	–	B (a compound having 3 or more and less than 10 is denoted as B)	B (a compound having 3 or more and less than 10 is denoted as B)
2.9	CCCN(C)C(=O)[C@@H]1CC(=O)N(C)[C@@H](COC)C(=O)N[C@@H]([C@@H](C)CC)C(=O)N(C)CC(=O)N(C)[C@H]2C/C=C\CCN(C2=O)[C@@H](Cc2ccc(C(F)(F)F)cc2)C(=O)N(C)CC(=O)N[C@@H](CCc2cc(F)c(C(F)(F)F)c(F)c2)C(=O)N2C[C@H](F)C[C@H]2C(=O)NC2(CC(C)(C)C2)C(=O)N(C)[C@@H](C2CCCC2)C(=O)N1C [PP1696]	AA (a compound having 20 or more is denoted as AA)	A (a compound having 10 or more and less than 20 is denoted as A)	–	–	–	–
44.9	CC[C@H](C)[C@@H]1NC(=O)[C@H](CC(C)C)N(C)C(=O)C[C@@H](C(=O)N2CCOCC2)N(C)C(=O)[C@H](C2CCCC2)N(C)C(=O)C2(CC(F)(F)C2)NC(=O)[C@@H]2CCCN2C(=O)[C@H](CCc2cc(F)c(C(F)(F)F)c(F)c2)NC(=O)CN(C)C(=O)[C@H](Cc2ccc(C(F)(F)F)cc2)N2CCCCC[C@@H](C2=O)N(C)C(=O)CN(C)C1=O [PP0499]	–	–	B (a compound having 3 or more and less than 10 is denoted as B)	B (a compound having 3 or more and less than 10 is denoted as B)	–	–
2.1	CCO[C@@H]1C[C@H]2C(=O)NC3(CC(C)(C)C3)C(=O)N(C)[C@@H](C(CC)CC)C(=O)N(C)[C@H](C(=O)N(C)C)CC(=O)N(C)[C@H]3CCCCCCc4ccc(cc4)C[C@@H](C(=O)N(C)CC(=O)N[C@@H](CCc4ccc(C(F)(F)F)c(OC)c4)C(=O)N2C1)N1CC/C=C\C[C@@H](C1=O)N(C)C(=O)CN(C)C(=O)[C@H]([C@@H](C)CC)NC3=O [PP3032]	–	–	–	–	AA (a compound having 20 or more is denoted as AA)	A (a compound having 10 or more and less than 20 is denoted as A)
